Data taken from PubChem BioAssay (NCI).
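1) Cells in 96-well plates. 2) Compound, 48 h, 5 concentrations. 3) Linear interpolation between surrounding doses. 4) Unreached endpoint = highest concentration. The concentration for 50% growth inhibition is given as GI50. The concentration for full growth arrest is given as TGI.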

Experiments:
Assay in all cases: growth of human tumour cells (NCI), 48 h
KM12 colon = tested on: KM12 colon
TK-10 renal = tested on: TK-10 renal
UACC-62 melanoma = tested on: UACC-62 melanoma
HCC-2998 colon = tested on: HCC-2998 colon
A549 NSCLC = tested on: A549 NSCLC
U251 CNS = tested on: U251 CNS
SF-268 CNS = tested on: SF-268 CNS
SF-295 CNS = tested on: SF-295 CNS
OVCAR-4 ovarian = tested on: OVCAR-4 ovarian
RXF 393 renal = tested on: RXF 393 renal
OVCAR-5 ovarian = tested on: OVCAR-5 ovarian
PC-3 prostate = tested on: PC-3 prostate
HS 578T breast = tested on: HS 578T breast
LOX IMVI melanoma = tested on: LOX IMVI melanoma
BT-549 breast = tested on: BT-549 breast
SK-OV-3 ovarian = tested on: SK-OV-3 ovarian
MALME-3M melanoma = tested on: MALME-3M melanoma
SK-MEL-28 melanoma = tested on: SK-MEL-28 melanoma
HCT-15 colon = tested on: HCT-15 colon
T-47D breast = tested on: T-47D breast
HCT-116 colon = tested on: HCT-116 colon
SN12C renal = tested on: SN12C renal
MCF7 breast = tested on: MCF7 breast
NCI-H460 lung = tested on: NCI-H460 lung
M14 melanoma = tested on: M14 melanoma
ACHN renal = tested on: ACHN renal
OVCAR-8 ovarian = tested on: OVCAR-8 ovarian
MDA-MB-435 = tested on: MDA-MB-435
SW-620 colon = tested on: SW-620 colon
DU-145 prostate = tested on: DU-145 prostate
HL-60(TB) leukemia = tested on: HL-60(TB) leukemia
EKVX NSCLC = tested on: EKVX NSCLC
RPMI-8226 leukemia = tested on: RPMI-8226 leukemia
MDA-MB-468 breast = tested on: MDA-MB-468 breast
HOP-62 NSCLC = tested on: HOP-62 NSCLC
IGROV1 ovarian = tested on: IGROV1 ovarian
NCI/ADR-RES ovarian = tested on: NCI/ADR-RES ovarian
K-562 leukemia = tested on: K-562 leukemia
NCI-H226 lung = tested on: NCI-H226 lung
COLO 205 colon = tested on: COLO 205 colon
SK-MEL-2 melanoma = tested on: SK-MEL-2 melanoma
UO-31 renal = tested on: UO-31 renal
HOP-92 NSCLC = tested on: HOP-92 NSCLC
CCRF-CEM leukemia = tested on: CCRF-CEM leukemia
SF-539 CNS = tested on: SF-539 CNS
CAKI-1 renal = tested on: CAKI-1 renal
UACC-257 melanoma = tested on: UACC-257 melanoma
SR leukemia = tested on: SR leukemia
A498 renal = tested on: A498 renal
NCI-H522 lung = tested on: NCI-H522 lung
SK-MEL-5 melanoma = tested on: SK-MEL-5 melanoma
SNB-19 CNS = tested on: SNB-19 CNS
HT29 colon = tested on: HT29 colon
SNB-75 CNS = tested on: SNB-75 CNS
786-0 renal = tested on: 786-0 renal
MDA-MB-231 breast = tested on: MDA-MB-231 breast
NCI-H23 lung = tested on: NCI-H23 lung
OVCAR-3 ovarian = tested on: OVCAR-3 ovarian
MOLT-4 leukemia = tested on: MOLT-4 leukemia

For `O=C1c2c(c3c4cc(F)ccc4oc3c3[nH]c4ccc(Br)cc4c23)C(=O)N1O`, which GI50 (KM12 colon) is on record?
Its GI50 is 5.89 µM.

What about the TGI (KM12 colon) of the same molecule?
Its TGI is over 100 µM.

And the GI50 (TK-10 renal)?
Its GI50 is 24.9 µM.

And the TGI (TK-10 renal)?
The TGI was 72.5 µM.

What about the GI50 (UACC-62 melanoma) of the same molecule?
The GI50 was 0.799 µM.

What about the TGI (UACC-62 melanoma) of the same molecule?
The TGI was 14.6 µM.

What about the GI50 (HCC-2998 colon) of the same molecule?
Its GI50 is 11.5 µM.

And the TGI (HCC-2998 colon)?
Its TGI is over 100 µM.

What about the GI50 (A549 NSCLC) of the same molecule?
Its GI50 is over 52.1 µM.

What about the TGI (A549 NSCLC) of the same molecule?
Its TGI is over 100 µM.

What about the GI50 (U251 CNS) of the same molecule?
Its GI50 is 0.641 µM.

And the TGI (U251 CNS)?
The TGI was over 100 µM.

And the GI50 (SF-268 CNS)?
The GI50 was 0.844 µM.

What about the TGI (SF-268 CNS) of the same molecule?
Its TGI is over 100 µM.

And the GI50 (SF-295 CNS)?
The GI50 was 1.24 µM.

And the TGI (SF-295 CNS)?
Its TGI is over 46.4 µM.

What about the GI50 (OVCAR-4 ovarian) of the same molecule?
Its GI50 is over 100 µM.

What about the TGI (OVCAR-4 ovarian) of the same molecule?
Its TGI is over 100 µM.

And the GI50 (RXF 393 renal)?
Its GI50 is 3.76 µM.

And the TGI (RXF 393 renal)?
Its TGI is 32.8 µM.

What about the GI50 (OVCAR-5 ovarian) of the same molecule?
Its GI50 is over 100 µM.

And the TGI (OVCAR-5 ovarian)?
Its TGI is over 100 µM.

And the GI50 (PC-3 prostate)?
The GI50 was 0.926 µM.

And the TGI (PC-3 prostate)?
The TGI was over 100 µM.

What about the GI50 (HS 578T breast) of the same molecule?
The GI50 was 2.42 µM.

What about the TGI (HS 578T breast) of the same molecule?
Its TGI is over 34.9 µM.

What about the GI50 (LOX IMVI melanoma) of the same molecule?
Its GI50 is 0.227 µM.

What about the TGI (LOX IMVI melanoma) of the same molecule?
The TGI was 1.4 µM.

And the GI50 (BT-549 breast)?
The GI50 was 1.84 µM.

What about the TGI (BT-549 breast) of the same molecule?
The TGI was over 100 µM.

What about the GI50 (SK-OV-3 ovarian) of the same molecule?
The GI50 was 3.72 µM.

What about the TGI (SK-OV-3 ovarian) of the same molecule?
Its TGI is 37.6 µM.

And the GI50 (MALME-3M melanoma)?
The GI50 was 2.5 µM.

And the TGI (MALME-3M melanoma)?
The TGI was 16.1 µM.

What about the GI50 (SK-MEL-28 melanoma) of the same molecule?
The GI50 was 5.84 µM.

And the TGI (SK-MEL-28 melanoma)?
The TGI was over 100 µM.

And the GI50 (HCT-15 colon)?
Its GI50 is 3.57 µM.

What about the TGI (HCT-15 colon) of the same molecule?
The TGI was over 100 µM.

What about the GI50 (T-47D breast) of the same molecule?
The GI50 was 3.22 µM.

And the TGI (T-47D breast)?
The TGI was over 100 µM.

And the GI50 (HCT-116 colon)?
Its GI50 is 2.09 µM.

What about the TGI (HCT-116 colon) of the same molecule?
Its TGI is over 100 µM.

And the GI50 (SN12C renal)?
The GI50 was 0.473 µM.

What about the TGI (SN12C renal) of the same molecule?
Its TGI is over 100 µM.

And the GI50 (MCF7 breast)?
Its GI50 is 0.488 µM.

And the TGI (MCF7 breast)?
The TGI was over 100 µM.

And the GI50 (NCI-H460 lung)?
The GI50 was 0.393 µM.

And the TGI (NCI-H460 lung)?
Its TGI is over 100 µM.

What about the GI50 (M14 melanoma) of the same molecule?
The GI50 was 0.542 µM.

What about the TGI (M14 melanoma) of the same molecule?
The TGI was over 100 µM.

And the GI50 (ACHN renal)?
Its GI50 is 0.372 µM.

What about the TGI (ACHN renal) of the same molecule?
Its TGI is 13.3 µM.

What about the GI50 (OVCAR-8 ovarian) of the same molecule?
The GI50 was 1.47 µM.

What about the TGI (OVCAR-8 ovarian) of the same molecule?
The TGI was over 100 µM.

And the GI50 (MDA-MB-435)?
The GI50 was 4.91 µM.

What about the TGI (MDA-MB-435) of the same molecule?
Its TGI is over 100 µM.

And the GI50 (SW-620 colon)?
The GI50 was 0.477 µM.

And the TGI (SW-620 colon)?
Its TGI is over 100 µM.

And the GI50 (DU-145 prostate)?
Its GI50 is 0.735 µM.

What about the TGI (DU-145 prostate) of the same molecule?
The TGI was over 100 µM.

What about the GI50 (HL-60(TB) leukemia) of the same molecule?
The GI50 was 6.07 µM.

What about the TGI (HL-60(TB) leukemia) of the same molecule?
The TGI was over 100 µM.

What about the GI50 (EKVX NSCLC) of the same molecule?
Its GI50 is 25.8 µM.

And the TGI (EKVX NSCLC)?
Its TGI is over 100 µM.

And the GI50 (RPMI-8226 leukemia)?
Its GI50 is 1.86 µM.

What about the TGI (RPMI-8226 leukemia) of the same molecule?
The TGI was over 100 µM.

What about the GI50 (MDA-MB-468 breast) of the same molecule?
Its GI50 is 3.45 µM.

And the TGI (MDA-MB-468 breast)?
The TGI was 23 µM.

And the GI50 (HOP-62 NSCLC)?
Its GI50 is 0.833 µM.

What about the TGI (HOP-62 NSCLC) of the same molecule?
The TGI was over 57.8 µM.

And the GI50 (IGROV1 ovarian)?
Its GI50 is 1.05 µM.

What about the TGI (IGROV1 ovarian) of the same molecule?
Its TGI is over 100 µM.

What about the GI50 (NCI/ADR-RES ovarian) of the same molecule?
Its GI50 is 0.578 µM.

What about the TGI (NCI/ADR-RES ovarian) of the same molecule?
Its TGI is over 100 µM.

And the TGI (K-562 leukemia)?
Its TGI is over 100 µM.

And the GI50 (NCI-H226 lung)?
Its GI50 is 8.35 µM.

What about the TGI (NCI-H226 lung) of the same molecule?
Its TGI is over 100 µM.

And the GI50 (COLO 205 colon)?
The GI50 was over 33 µM.

And the TGI (COLO 205 colon)?
The TGI was over 100 µM.

What about the GI50 (SK-MEL-2 melanoma) of the same molecule?
The GI50 was 18.6 µM.

And the TGI (SK-MEL-2 melanoma)?
Its TGI is 45.4 µM.

What about the GI50 (UO-31 renal) of the same molecule?
The GI50 was 0.439 µM.

And the TGI (UO-31 renal)?
Its TGI is over 100 µM.

And the GI50 (HOP-92 NSCLC)?
Its GI50 is 2.35 µM.

And the TGI (HOP-92 NSCLC)?
Its TGI is 13.2 µM.

What about the GI50 (CCRF-CEM leukemia) of the same molecule?
Its GI50 is 0.193 µM.

What about the TGI (CCRF-CEM leukemia) of the same molecule?
Its TGI is over 100 µM.

And the GI50 (SF-539 CNS)?
The GI50 was 0.381 µM.

And the TGI (SF-539 CNS)?
The TGI was 4.34 µM.

What about the GI50 (CAKI-1 renal) of the same molecule?
Its GI50 is 1.34 µM.

And the TGI (CAKI-1 renal)?
Its TGI is over 100 µM.

What about the GI50 (UACC-257 melanoma) of the same molecule?
The GI50 was over 100 µM.

What about the TGI (UACC-257 melanoma) of the same molecule?
Its TGI is over 100 µM.

What about the GI50 (SR leukemia) of the same molecule?
Its GI50 is 0.131 µM.

And the TGI (SR leukemia)?
Its TGI is over 100 µM.

And the GI50 (A498 renal)?
The GI50 was 26.6 µM.

What about the TGI (A498 renal) of the same molecule?
Its TGI is 70.9 µM.

And the GI50 (NCI-H522 lung)?
The GI50 was 0.286 µM.

And the TGI (NCI-H522 lung)?
Its TGI is 5.82 µM.

What about the GI50 (SK-MEL-5 melanoma) of the same molecule?
The GI50 was 1.42 µM.

What about the TGI (SK-MEL-5 melanoma) of the same molecule?
The TGI was 15 µM.

And the GI50 (SNB-19 CNS)?
The GI50 was 0.678 µM.

And the TGI (SNB-19 CNS)?
The TGI was over 79.9 µM.

What about the GI50 (HT29 colon) of the same molecule?
The GI50 was 6.86 µM.

And the TGI (HT29 colon)?
The TGI was over 100 µM.

And the GI50 (SNB-75 CNS)?
Its GI50 is 0.656 µM.

What about the TGI (SNB-75 CNS) of the same molecule?
Its TGI is 8.39 µM.

And the GI50 (786-0 renal)?
Its GI50 is 3.84 µM.

And the TGI (786-0 renal)?
Its TGI is over 50.6 µM.

And the GI50 (MDA-MB-231 breast)?
Its GI50 is 4.99 µM.

And the TGI (MDA-MB-231 breast)?
Its TGI is 64.3 µM.

What about the GI50 (NCI-H23 lung) of the same molecule?
The GI50 was 0.471 µM.

And the TGI (NCI-H23 lung)?
Its TGI is 11.7 µM.

And the GI50 (OVCAR-3 ovarian)?
Its GI50 is 45 µM.

And the TGI (OVCAR-3 ovarian)?
Its TGI is over 100 µM.

What about the GI50 (MOLT-4 leukemia) of the same molecule?
Its GI50 is 0.505 µM.

And the TGI (MOLT-4 leukemia)?
The TGI was over 100 µM.
